# Test results from publication PMC4911292 (Clinical cancer research : an official journal of the …, 2016).
# What was measured:
# [1] = set-up: species or system human; conditions: in vivo
# [2] = test system: pretreated metastatic breast cancer; conditions: single agent; cited from earlier work
# [3] = test system: advanced triple-negative breast cancer and/or BRCA mutation-associated breast cancer; assay: Preliminary efficacy; assay type: in vivo, human; conditions: veliparib with cisplatin and vinorelbine
# PARP = conditions: at lower doses; cited from earlier work
# [4] = test system: patients with recurrent and/or metastatic TNBC and/or BRCA mutation-associated breast cancer
# CYP enzymes = conditions: cited from earlier work
# [5] = Veliparib pharmacokinetics in plasma and urine; assay type: in vivo, human
# [6] = test system: germline BRCA mutation-associated cancer; conditions: monotherapy throughout a 28-day cycle; cited from earlier work
# P-glycoprotein (P-gp) = conditions: cited from earlier work
# [7] = cited from earlier work
# [8] = germline BRCA1 and BRCA2 wild-type, n=26
# [9] = germline BRCA1 or BRCA2 mutation positive, n=14
# [10] = N=50, veliparib with cisplatin and vinorelbine, any time during study
# [11] = veliparib monotherapy, 23 patients
# [12] = veliparib with cisplatin and vinorelbine, N=50
structure (smiles),measurement,setting,value
N.N.[Cl][Pt][Cl] [cisplatin],Median C4/C1 ratio for ultrafilterable platinum AUC0-24,[1],0.98
same,Median C4/C1 ratio for ultrafilterable platinum Cmax,[1],0.99
same,Response rate,[2],less than 10%
C[C@]1(c2nc3c(C(N)=O)cccc3[nH]2)CCCN1 [veliparib],Best overall response: complete response,[3]; 48 patients,4%
same,Progressive disease as best response or not assessed due to disease or toxicity,[3]; 48 patients,21%
same,Stable disease as best response,[3]; 48 patients,44%
same,"Overall response rate (CR+PR, confirmed)","[3]; 48 patients, 95% CI 23%-50%",35%
same,Response (CR+PR),[3]; BRCA mutation present,57%
same,Median progression-free survival,"[3]; all 50 patients, 95% CI 4.1-6.7",5.5 months
same,Median overall survival,"[3]; all patients, 95% CI 8.1-20.7",9.6 months
same,Best overall response: Complete response (CR),[3]; [8],1 (4%) n(%)
same,Best overall response: Partial response (PR),[3]; [8],7 (27%) n(%)
same,Best overall response: Progressive disease (PD),[3]; [8],6 (23%) n(%)
same,Best overall response: Complete response (CR),[3]; [9],1 (7%) n(%)
same,Best overall response: Partial response (PR),[3]; [9],7 (50%) n(%)
same,Best overall response: Progressive disease (PD),[3]; [9],1 (7%) n(%)
same,Clinical benefit (PFS6) rate,[3]; [9],10 (71%) n(%)
same,Median OS,[3]; germline BRCA mutation,22.6 months
same,Median PFS,[3]; germline BRCA mutation,9.2 months
same,6-month progression-free survival (PFS6),[3]; germline BRCA mutation absent,30%
same,6-month progression-free survival (PFS6),[3]; germline BRCA mutation present,71%
same,Median PFS,[3]; germline BRCA wild-type,4.2 months
same,Best overall response: Complete response (CR),"[3]; total, n=48",2 (4%) n(%)
same,Best overall response: Partial response (PR),"[3]; total, n=48",15 (31%) n(%)
same,Best overall response: Progressive disease (PD),"[3]; total, n=48",10 (21%) n(%)
same,Best overall response: Partial response (PR),"[3]; unknown mutation status, n=8",1(12%) n(%)
same,Best overall response: Progressive disease (PD),"[3]; unknown mutation status, n=8",3 (38%) n(%)
same,Clinical benefit (PFS6) rate,"[3]; unknown mutation status, n=8",2 (25%) n(%)
same,Median OS,[3]; unknown mutational status,6.2 months
same,Median PFS,[3]; unknown mutational status,4.0 months
same,PARP inhibition by PAR assay,PARP,90%
same,Dose limiting toxicity,"[4]; 40 mg dose level, with cisplatin and vinorelbine, one patient, bone marrow involvement of breast cancer",grade 4 thrombocytopenia
same,"Anemia, All grades",[4]; [10],32 (64%) N (%)
same,"Anorexia, All grades",[4]; [10],17 (34%) N (%)
same,"Dehydration, All grades",[4]; [10],17 (34%) N (%)
same,"Dyspepsia, All grades",[4]; [10],11 (22%) N (%)
same,"Fatigue, All grades",[4]; [10],40 (80%) N (%)
same,"Hypokalemia, All grades",[4]; [10],13 (26%) N (%)
same,"Nausea, All grades",[4]; [10],43 (86%) N (%)
same,"Neutrophil count decreased, All grades",[4]; [10],31 (62%) N (%)
same,"Peripheral sensory neuropathy, All grades",[4]; [10],21 (42%) N (%)
same,"Platelet count decreased, All grades",[4]; [10],33 (66%) N (%)
same,"Tinnitus, All grades",[4]; [10],26 (52%) N (%)
same,"Vomiting, All grades",[4]; [10],21 (42%) N (%)
same,Recommended phase II dose (RP2D),[4]; in combination with cisplatin and vinorelbine,300 mg BID
same,Patients reporting AEs on monotherapy,[4]; veliparib monotherapy,Six of 23
same,"Dyspepsia, any grade",[4]; [11],17%
same,"Nausea, any grade",[4]; [11],17%
same,"Vomiting, any grade",[4]; [11],17%
same,Grade 3/4 anemia,[4]; [12],30%
same,Grade 3/4 neutropenia,[4]; [12],36%
same,Grade 3/4 thrombocytopenia,[4]; [12],12%
same,Inhibition or induction of major CYP enzymes,CYP enzymes,does not appear to inhibit or induce the activity of major CYP enzymes
same,Share of oral clearance accounted for by CYP2D6,CYP enzymes,~ 18%
same,Share of oral clearance accounted for by additional liver metabolism,CYP enzymes,10%
same,Proportion of the first dose excreted in the urine over 12 hours (median),"[5]; cycle 1, N=20",61.7%
same,Proportion of the first dose excreted in the urine over 12 hours (median),"[5]; cycle 4, N=20",66.7%
same,Median C4/C1 ratio of Cmax,"[5]; cycle 4 day 1 vs cycle 1 day 0, N=32, range 0.36-2.00",0.85
same,Median C4/C1 ratio of AUC0-6,"[5]; cycle 4 day 1 vs cycle 1 day 0, N=32, range 0.44-1.64",0.82
same,Current RP2D as monotherapy,[6],400 mg BID
same,Inhibition or induction of P-gp,P-glycoprotein (P-gp),does not appear to inhibit or induce P-gp
same,P-gp substrate status,P-glycoprotein (P-gp),weak P-glycoprotein (P-gp) substrate
CCC1=C[C@@H]2CN(C1)Cc1c([nH]c3ccccc13)[C@@](C(=O)OC)(c1cc3c(cc1OC)N(C)[C@H]1[C@@](O)(C(=O)OC)[C@H](OC(C)=O)[C@]4(CC)C=CCN5CC[C@]31[C@@H]54)C2 [vinorelbine],"Renal excretion, share of the administered dose",[7],approximately 10%
